Laboratory results from the supplement of paper PMC10307832.

Columns and labels:
Test in all cases: relative viability (nuclei count vs DMSO), 5 days (fraction); higher = more cells survive
[1] = compound: C1COCCN1C2=NC(=NC3=C2OC4=C3C=CC=N4)C5=CC(=CC=C5)NC(=O)C6=CN=C(C=C6)N + Cc1nc(Nc2ncc(C(=O)Nc3c(C)cccc3Cl)s2)cc(N2CCN(CCO)CC2)n1 [Dasatinib] (partner 0.075 µM)
How it was run: (§1)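 Relative viability is defined as nuclei in treated wells over nuclei in vehicle wells. Duplicate plates were run and medians reported. Lung cancer cell lines in 1536-well plates were dosed by pin tool one day after seeding, with one drug or with a fixed anchor-drug dose plus five library-drug doses (not always all listed) in √10 steps, and nuclei were counted after 5 days.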

SGI-1776 + AZD7762 = compound: CN1CCC(CNc2ccc3ncc(-c4cccc(OC(F)(F)F)c4)n3n2)CC1 [SGI-1776] + NC(=O)Nc1cc(-c2cccc(F)c2)sc1C(=O)N[C@H]1CCCNC1 [AZD7762] (partner 0.2 µM)
How it was run: as §1

[2] = compound: C1COCCN1C2=NC(=NC3=C2OC4=C3C=CC=N4)C5=CC(=CC=C5)NC(=O)C6=CN=C(C=C6)N + CC(=O)c1c(C)c2cnc(Nc3ccc(N4CCNCC4)cn3)nc2n(C2CCCC2)c1=O [Palbociclib] (partner 0.5 µM)
How it was run: as §1

SGI-1776 + OSI-027 = compound: CN1CCC(CNc2ccc3ncc(-c4cccc(OC(F)(F)F)c4)n3n2)CC1 [SGI-1776] + COc1cccc2cc(-c3nc([C@H]4CC[C@H](C(=O)O)CC4)n4ncnc(N)c34)[nH]c12 [OSI-027] (partner 0.5 µM)
How it was run: as §1

Row | Cell Line | relative viability ([1]; first compound 0.02 µM) | relative viability ([1]; first compound 0.06325 µM) | relative viability ([1]; first compound 0.2 µM) | relative viability ([1]; first compound 0.6325 µM) | relative viability ([1]; first compound 2 µM) | relative viability (SGI-1776 + AZD7762; first compound 0.08 µM) | relative viability (SGI-1776 + AZD7762; first compound 0.8 µM) | relative viability (SGI-1776 + AZD7762; first compound 2.53 µM) | relative viability (SGI-1776 + AZD7762; first compound 8 µM) | relative viability ([2]; first compound 0.02 µM) | relative viability ([2]; first compound 0.06325 µM) | relative viability ([2]; first compound 0.2 µM) | relative viability ([2]; first compound 0.6325 µM) | relative viability ([2]; first compound 2 µM) | relative viability (SGI-1776 + OSI-027; first compound 0.08 µM) | relative viability (SGI-1776 + OSI-027; first compound 0.8 µM) | relative viability (SGI-1776 + OSI-027; first compound 2.53 µM) | relative viability (SGI-1776 + OSI-027; first compound 8 µM)
1 | HOP-62 | 0.765 | 0.743 | 0.547 | 0.574 | 0.323 | 0.84 | 0.574 | 0.613 | 0.646 | 0.529 | 0.513 | 0.444 | 0.426 | 0.182 | 0.882 | 0.866 | 0.802 | 0.81
2 | LC-2-ad | 0.629 | 0.716 | 0.52 | 0.435 | 0.417 | 0.886 | 0.901 | 0.771 | 0.691 | 0.518 | 0.484 | 0.469 | 0.526 | 0.396 | 0.918 | 0.806 | 0.973 | 0.548
3 | LCLC-97TM1 | 0.865 | 0.939 | 0.762 | 0.914 | 0.675 | 0.302 | 0.313 | 0.204 | 0.304 | 0.226 | 0.26 | 0.236 | 0.323 | 0.162 | 0.597 | 0.487 | 0.59 | 0.487
4 | LCLC-103H | 0.433 | 0.468 | 0.479 | 0.514 | 0.344 | 0.9 | 0.776 | 0.675 | 0.729 | 0.498 | 0.453 | 0.546 | 0.467 | 0.403 | 0.481 | 0.446 | 0.457 | 0.425
5 | LK-2 | 0.253 | 0.284 | 0.245 | 0.245 | 0.283 | 0.423 | 0.54 | 0.324 | 0.236 | 0.71 | 0.646 | 0.82 | 0.501 | 0.356 | 0.247 | 0.216 | 0.201 | 0.159
6 | LOU-NH91 | 0.537 | 0.546 | 0.587 | 0.56 | 0.357 | 0.797 | 0.793 | 0.7 | 0.593 | 0.541 | 0.551 | 0.565 | 0.49 | 0.535 | 0.777 | 0.726 | 0.826 | 0.56
7 | LU99A | 0.538 | 0.533 | 0.37 | 0.347 | 0.182 | 0.38 | 0.384 | 0.339 | 0.294 | 0.412 | 0.448 | 0.361 | 0.343 | 0.29 | 0.294 | 0.286 | 0.303 | 0.262
8 | LXF-289 | 0.228 | 0.249 | 0.219 | 0.17 | 0.175 | 1.06 | 1.13 | 1.16 | 1.09 | 0.603 | 0.604 | 0.623 | 0.612 | 0.384 | 0.794 | 0.843 | 0.764 | 0.707
9 | NCI-H520 | 0.227 | 0.188 | 0.219 | 0.177 | 0.131 | – | – | – | – | 0.206 | 0.236 | 0.226 | 0.207 | 0.189 | 0.255 | 0.263 | 0.249 | 0.223
10 | NCI-H596 | 0.607 | 0.621 | 0.545 | 0.739 | 0.5 | 1.17 | 1.15 | 0.984 | 0.897 | – | – | – | – | – | 0.809 | 0.761 | 0.682 | 0.467
11 | NCI-H661 | 0.88 | 0.853 | 0.688 | 0.736 | 0.64 | – | – | – | – | 0.396 | 0.402 | 0.387 | 0.375 | 0.374 | 0.766 | 0.867 | 0.611 | 0.596
12 | NCI-H1563 | 0.505 | 0.453 | 0.437 | 0.461 | 0.578 | – | – | – | – | – | – | – | – | – | 0.749 | 0.8 | 0.674 | 0.614
13 | NCI-H1623 | 0.516 | 0.469 | 0.516 | 0.527 | 0.498 | – | – | – | – | – | – | – | – | – | 0.459 | 0.416 | 0.502 | 0.427
14 | NCI-H1648 | – | – | – | – | – | 0.668 | 0.753 | 0.771 | 0.658 | 0.252 | 0.252 | 0.255 | 0.212 | 0.222 | 0.233 | 0.273 | 0.249 | 0.238
15 | NCI-H1650 | 0.336 | 0.29 | 0.287 | 0.278 | 0.248 | – | – | – | – | 0.336 | 0.321 | 0.274 | 0.39 | 0.287 | 0.627 | 0.565 | 0.417 | 0.197
16 | NCI-H1703 | – | – | – | – | – | 0.106 | 0.114 | 0.136 | 0.106 | – | – | – | – | – | – | – | – | –
17 | NCI-H2009 | 0.245 | 0.278 | 0.215 | 0.219 | 0.215 | – | – | – | – | 0.195 | 0.224 | 0.144 | 0.223 | 0.202 | 0.653 | 0.636 | 0.591 | 0.282
18 | NCI-H2023 | 0.632 | 0.648 | 0.47 | 0.484 | 0.251 | – | – | – | – | 0.378 | 0.384 | 0.316 | 0.256 | 0.172 | 0.415 | 0.388 | 0.319 | 0.167
19 | NCI-H2228 | 0.647 | 0.487 | 0.439 | 0.33 | 0.246 | – | – | – | – | 0.934 | 0.817 | 0.407 | 0.64 | 0.621 | 0.644 | 0.582 | 0.425 | 0.275
20 | SK-LU-1 | 0.153 | 0.188 | 0.168 | 0.176 | 0.16 | – | – | – | – | 0.382 | 0.382 | 0.371 | 0.367 | 0.359 | 0.397 | 0.328 | 0.335 | 0.166
21 | SK-MES-1 | 0.342 | 0.406 | 0.259 | 0.239 | 0.244 | – | – | – | – | 0.314 | 0.329 | 0.294 | 0.276 | 0.312 | 0.673 | 0.585 | 0.649 | 0.314
22 | SW 1573 | 0.401 | 0.565 | 0.458 | 0.378 | 0.247 | – | – | – | – | 0.397 | 0.381 | 0.37 | 0.429 | 0.261 | 0.673 | 0.715 | 0.631 | 0.391
